System: SEM cells
Assay: cell viability relative to DMSO control; higher = less cytotoxic
Settings: 48 h
Method in brief: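 In 1536-well plates, 5 μl of leukemia cells were seeded per well: 500 cells/well for NOMO1 or SEM and 1000 cells/well for P12-Ichikawa. Each line had first been adapted for at least four passages in each medium. Library compounds in DMSO were pin-dosed at 11 threefold concentrations between 47 μM and 0.79 nM, and CellTiter-Glo One luminescence was read after 48 h at 37°C. Viability is a per-plate percentage relative to DMSO wells, with cell-free wells as background.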

[1] = HPLM + 10% dialyzed FBS, 0.000781 µM
[2] = HPLM + 10% dialyzed FBS, 0.00234 µM
[3] = HPLM + 10% dialyzed FBS, 0.00702 µM
[4] = HPLM + 10% dialyzed FBS, 0.0211 µM
[5] = HPLM + 10% dialyzed FBS, 0.0632 µM
[6] = HPLM + 10% dialyzed FBS, 0.19 µM
[7] = HPLM + 10% dialyzed FBS, 0.569 µM
[8] = HPLM + 10% dialyzed FBS, 1.71 µM
[9] = HPLM + 10% dialyzed FBS, 5.12 µM
[10] = HPLM + 10% dialyzed FBS, 15.4 µM
[11] = HPLM + 10% dialyzed FBS, 46.1 µM
[12] = RPMI 5 mM glucose + 10% FBS, 0.000781 µM
[13] = RPMI 5 mM glucose + 10% FBS, 0.00234 µM
[14] = RPMI 5 mM glucose + 10% FBS, 0.00702 µM
[15] = RPMI 5 mM glucose + 10% FBS, 0.0211 µM
[16] = RPMI 5 mM glucose + 10% FBS, 0.0632 µM
[17] = RPMI 5 mM glucose + 10% FBS, 0.19 µM
[18] = RPMI 5 mM glucose + 10% FBS, 0.569 µM
[19] = RPMI 5 mM glucose + 10% FBS, 1.71 µM
[20] = RPMI 5 mM glucose + 10% FBS, 5.12 µM
[21] = RPMI 5 mM glucose + 10% FBS, 15.4 µM
[22] = RPMI 5 mM glucose + 10% FBS, 46.1 µM
[23] = RPMI 5 mM glucose + 10% dialyzed FBS, 0.000781 µM
[24] = RPMI 5 mM glucose + 10% dialyzed FBS, 0.00234 µM
[25] = RPMI 5 mM glucose + 10% dialyzed FBS, 0.00702 µM
[26] = RPMI 5 mM glucose + 10% dialyzed FBS, 0.0211 µM
[27] = RPMI 5 mM glucose + 10% dialyzed FBS, 0.0632 µM
[28] = RPMI 5 mM glucose + 10% dialyzed FBS, 0.19 µM
[29] = RPMI 5 mM glucose + 10% dialyzed FBS, 0.569 µM
[30] = RPMI 5 mM glucose + 10% dialyzed FBS, 1.71 µM
[31] = RPMI 5 mM glucose + 10% dialyzed FBS, 5.12 µM
[32] = RPMI 5 mM glucose + 10% dialyzed FBS, 15.4 µM
[33] = RPMI 5 mM glucose + 10% dialyzed FBS, 46.1 µM

| Compound | cell viability [1] [%] | cell viability [2] [%] | cell viability [3] [%] | cell viability [4] [%] | cell viability [5] [%] | cell viability [6] [%] | cell viability [7] [%] | cell viability [8] [%] | cell viability [9] [%] | cell viability [10] [%] | cell viability [11] [%] | cell viability [12] [%] | cell viability [13] [%] | cell viability [14] [%] | cell viability [15] [%] | cell viability [16] [%] | cell viability [17] [%] | cell viability [18] [%] | cell viability [19] [%] | cell viability [20] [%] | cell viability [21] [%] | cell viability [22] [%] | cell viability [23] [%] | cell viability [24] [%] | cell viability [25] [%] | cell viability [26] [%] | cell viability [27] [%] | cell viability [28] [%] | cell viability [29] [%] | cell viability [30] [%] | cell viability [31] [%] | cell viability [32] [%] | cell viability [33] [%] |
| --- | --- | --- | --- | --- | --- | --- | --- | --- | --- | --- | --- | --- | --- | --- | --- | --- | --- | --- | --- | --- | --- | --- | --- | --- | --- | --- | --- | --- | --- | --- | --- | --- | --- |
| C[C@H]1C[C@H]2[C@@H]3CC[C@](O)(C(=O)CO)[C@@]3(C)C[C@H](O)[C@@H]2[C@@]\4(C)/C=C\C(=O)\C=C14 | 78.4 | 85 | 76.7 | 87.1 | 86.2 | 75.6 | 57.1 | 41.3 | 47.4 | 46.9 | 42.6 | 76.9 | 104 | 90 | 101 | 90.5 | 102 | 71.3 | 39.2 | 51.5 | 51.2 | 40.2 | 90.6 | 92.4 | 101 | 95.7 | 93.2 | 96.3 | 72.1 | 40.9 | 45.7 | 45 | 33.3 |
| CCOC(=O)N1c2ccc(C(F)(F)F)cc2[C@@H](N(Cc2cc(C(F)(F)F)cc(C(F)(F)F)c2)C(=O)OC)C[C@H]1CC | 121 | 111 | 124 | 124 | 117 | 113 | 105 | 113 | 109 | 125 | 109 | 104 | 108 | 115 | 121 | 116 | 110 | 103 | 109 | 109 | 103 | 97.3 | 118 | 108 | 118 | 113 | 129 | 113 | 118 | 117 | 120 | 127 | 116 |
| N#CC(c1ccnc(NCCc2cccnc2)n1)c1nc2ccccc2s1 (stereo not drawn) | 110 | 122 | 118 | 117 | 126 | 136 | 134 | 131 | 144 | 137 | 115 | 105 | 105 | 144 | 125 | 133 | 118 | 124 | 132 | 140 | 132 | 120 |  |  |  |  |  |  |  |  |  |  |  |
| COc1cccc2c1C(=O)c1c(O)c3c(c(O)c1C2=O)C[C@@](O)(C(=O)CO)C[C@@H]3O[C@H]1C[C@H](N)[C@H](O[C@H]2CCCCO2)[C@H](C)O1 | 101 | 106 | 111 | 103 | 102 | 129 | 102 | 81.8 | 13 | 109 | 72.2 | 79.7 | 84.3 | 89.5 | 91 | 65.2 | 96.1 | 66.6 | 44.8 | 7.83 | 95.8 | 59 | 92.9 | 110 | 119 | 123 | 117 | 115 | 95.8 | 77.3 | 18.3 | 126 | 105 |
| CN(C)c1ccc2nc3ccc(N(C)C)cc3[s+]c2c1 | 89.6 | 51.3 | 99.7 | 104 | 104 | 117 | 114 | 102 | 97 | 18.6 | 5.42 | 82.6 | 44.9 | 89.8 | 97.6 | 91.1 | 111 | 79.7 | 85.7 | 87.2 | 73.7 | 6.3 | 86.7 | 38.2 | 80 | 89.2 | 92.7 | 91.2 | 90.1 | 91.1 | 78.7 | 46.8 | 6.19 |
| Cc1c(-c2cccc3c(CCCOc4cccc5ccccc45)c(C(=O)O)n(Cc4cccnc4)c23)c(COc2ccc(N3CCN([S+](=O)([O-])N(C)C)CC3)cc2)nn1C | 92.3 | 99.5 | 85.1 | 85.2 | 104 | 82.8 | 83.5 | 97.6 | 81 | 79.2 | 48.3 | 100 | 108 | 86.2 | 129 | 111 | 128 | 112 | 114 | 102 | 95.5 | 54.8 | 107 | 99.1 | 80.5 | 83.2 | 100 | 91.5 | 109 | 96.5 | 77.1 | 70 | 43 |
| Cc1ccccc1C(OCCN(C)C)c1ccccc1 (stereo not drawn) | 102 | 95.2 | 106 | 101 | 105 | 119 | 120 | 115 | 117 | 117 | 99.1 | 105 | 108 | 128 | 115 | 98.9 | 109 | 124 | 121 | 107 | 103 | 99.4 | 99.3 | 109 | 116 | 120 | 124 | 125 | 122 | 130 | 121 | 115 | 114 |
| COC(=O)Nc1nc2cc(C(=O)c3ccc(F)cc3)ccc2[nH]1 | 103 | 95.4 | 102 | 91.1 | 98.6 | 97.9 | 51.3 | 40.1 | 33.2 | 26.2 | 47.8 | 95.5 | 105 | 110 | 100 | 92.8 | 95.4 | 77.6 | 40.4 | 32.7 | 28.2 | 52 | 83.6 | 98.8 | 103 | 117 | 115 | 109 | 79.3 | 52 | 45.8 | 37.7 | 52.1 |
| CC(=O)N[C@@H]1[C@@H](NC(N)=N)\C=C(/O[C@H]1[C@H](O)[C@H](O)CO)C(O)=O | 78.4 | 89.6 | 98.1 | 107 | 107 | 123 | 40.2 | 106 | 112 | 98.6 | 95.4 | 80.1 | 90.1 | 125 | 98.6 | 89 | 129 | 49.5 | 128 | 136 | 119 | 110 | 64.5 | 82.9 | 117 | 102 | 126 | 122 | 38.4 | 120 | 121 | 110 | 113 |
| COc1cc([C@@H](CC(=O)O)c2ccc(C)c(CN3C[C@@H](C)Oc4ccccc4[S+]3(=O)[O-])c2)cc2nnn(C)c12 | 97.2 | 104 | 104 | 108 | 106 | 103 | 108 | 102 | 87 | 88.4 | 70.2 | 115 | 111 | 133 | 134 | 87 | 82.6 | 83.7 | 96.6 | 67.5 | 18.1 | 14.5 | 116 | 116 | 110 | 104 | 104 | 78.5 | 83.2 | 89.7 | 74.3 | 64.4 | 53.9 |
| CCOc1cc2ncc(C#N)c(Nc3ccc(OCc4ccccn4)c(Cl)c3)c2cc1NC(=O)/C=C/CN(C)C | 109 | 122 | 126 | 122 | 111 | 107 | 19.4 | 9.21 | 7.03 | 6.73 | 4.72 | 87 | 95.4 | 83.4 | 80.8 | 79.7 | 31.9 | 7.35 | 5.75 | 5.48 | 4.73 | 3.12 | 119 | 133 | 117 | 116 | 121 | 95.9 | 16.9 | 8.13 | 6.73 | 6.47 | 4.68 |
| C[C@]12Cc3cn[nH]c3C[C@@H]1CC[C@@H]1[C@@H]2CC[C@@]2(C)[C@H]1CC[C@]2(C)O | 108 | 105 | 105 | 79.7 | 100 | 88.6 | 83.6 | 75.8 | 90.4 | 97.4 | 88.1 | 102 | 108 | 104 | 119 | 116 | 104 | 118 | 104 | 99.4 | 114 | 101 | 103 | 94.9 | 106 | 123 | 110 | 103 | 108 | 107 | 111 | 105 | 95.8 |
| Cc1cc(O)c2c(c1)C(=O)c1cccc(O)c1C2=O | 99.4 | 121 | 126 | 100 | 122 | 133 | 135 | 135 | 116 | 70.5 | 71.6 |  |  |  |  |  |  |  |  |  |  |  | 117 | 111 | 124 | 109 | 137 | 140 | 134 | 110 | 123 | 81.2 | 64.7 |
| NC[C@@H]1O[C@H](O[C@H]2[C@@H](O)[C@H](O[C@@H]3[C@@H](O)[C@H](N)C[C@H](N)[C@H]3O[C@H]3O[C@H](CN)[C@@H](O)[C@H](O)[C@H]3N)O[C@@H]2CO)[C@H](N)[C@@H](O)[C@@H]1O.O=S(=O)(O)O.O=S(=O)(O)O.O=S(=O)(O)O | 104 | 99.7 | 103 | 106 | 98.4 | 99.4 | 104 | 91 | 98.7 | 105 | 106 | 92.9 | 105 | 110 | 98.8 | 69.1 | 101 | 101 | 102 | 104 | 94 | 105 | 109 | 115 | 116 | 113 | 90.7 | 104 | 115 | 105 | 108 | 105 | 100 |
| [O-]C(=O)C/1=N/C(=O)NC(=O)N1 | 95.8 | 99.2 | 93.4 | 111 | 85.1 | 20.6 | 94.8 | 99.8 | 100 | 91.6 | 84.3 | 93.7 | 99.6 | 95.6 | 93.6 | 87.4 | 34.2 | 90.8 | 83.7 | 100 | 88.1 | 83.7 | 97.1 | 100 | 101 | 106 | 100 | 34.7 | 96.8 | 89.8 | 104 | 88.7 | 91.8 |

Reference: the supplement of paper PMC11451515
